In patent US20130059916A1, “BIGUANIDE COMPOUNDS AND ITS USE FOR TREATING CANCER” (priority 2010, published 2013):

Legend:
human G361 cells = test: Cell viability of human G361 cells, FIG. 2; assay type: cell-based; conditions: metformin 0 to 20 mM
From the text: AICAR [aminoimidazole carboxamide ribonucleotide] an AMPK agonist, is used as reference.

melanoma cells [1] = test: Cell death by FACS analysis of propidium iodide uptake, FIG. 1''; assay type: cell-based
Protocol: Cell death was measured by FACS analysis of propidium iodide uptake.

normal human melanocytes = test: Cell viability of normal human melanocytes, FIG. 1; assay type: cell-based; conditions: 0 to 20 mM, 72 h and 96 h
Protocol: (§1) FIG. 1 discloses a study on viability cells of human melanomas cells (A375) in comparison to normal human melanocytes.
(§2) Doses of metformin used for this experiment are in a range between 0 to 20 mM at 72 h and 96 h.

AMPK = test: Cell viability after AMPK disruption using si-RNA (Western Blot), FIG. 3; assay type: cell-based
[2] = system: freshly human melanoma cells isolated from patients; test: Cell viability of freshly isolated human melanoma cells from patients, FIG. 1'; assay type: cell-based; conditions: 0 to 10 mM, 72 h
Protocol: FIG. 1′ discloses a study on viability cells of freshly human melanoma cells isolated from patients.
Doses of metformin used for this experiment are in a range between 0 to 10 mM at 72 h.

A375 melanoma cells = test: Mouse model of melanoma xenograft (A375), FIG. 4; assay type: in vivo, athymic nude mice; conditions: 2 mg/mouse/day by injection, after 23 days of treatment
B16 melanoma cells = test: Syngenic model, allograft of B16 melanoma cells, FIG. 4''; conditions: B16 allograft in C57B16 mice
[3] = system: human melanomas cells (A375); test: Cell viability of human melanoma cells (A375), FIG. 1; assay type: cell-based; conditions: 0 to 20 mM, 72 h and 96 h
Protocol: as §1, §2

melanoma cells [4] = test: TUNEL assay of mouse tumor sections, FIG. 4'; assay type: in vivo; conditions: tumor sections of metformin-treated mice

Compound	percentage of cell viability (human G361 cells)	cell death (propidium iodide uptake) (melanoma cells [1])	effect on cell viability of melanocytes (normal cells) (normal human melanocytes)	dependence of the effect on cell viability on AMPK (AMPK)	effect on cell viability of melanoma cells [2]	volume of melanoma (A375 melanoma cells)	weight of melanoma (A375 melanoma cells)	volume of tumor (B16 melanoma cells)	weight of tumor (B16 melanoma cells)	effect on cell viability of melanoma cells [3]	TUNEL-positive cells in the tumors (melanoma cells [4])
NC(=O)c1ncn([C@@H]2O[C@H](CO)[C@@H](O)[C@H]2O)c1N [AICAR, aminoimidazole carboxamide ribonucleotide]	no significative effect										
CN(C)C(=N)NC(=N)N [Metformin, N,N-dimethylimidodicarbonimidic diamide]	significant dose dependent decrease	induces a dose dependent cell death	no effect	independent on AMPK	dose dependent effect	decreases significantly	decreases significantly	diminished	diminished	dose dependent effect	increase in TUNEL-positive cells
